Experimental data from patent US8921323B2, “Methods and compositions for modulating BCL-2 family polypeptides” (Dana Farber Cancer Institute, Inc., priority 2007, dated 2014).
Ends that are not written are not given here.

Tests used:
[1] = tested on: Pfeiffer lymphoma cell line which overexpresses MCL-1 and A1; assay: killing of Pfeiffer lymphoma cell line; assay type: cell-based
[2] = tested on: Bax−/−Bak−/− mouse embryo fibroblasts reconstituted with BAXK21E; assay: apoptosis of BAXK21E-reconstituted DKO MEFs (annexin-V binding); assay type: cell-based; settings: compared with wild-type BAX
Excerpt: (§1) To determine if this single point mutation within the novel BAX binding site impacted the capacity to activate BAX in a cellular context, we retrovirally reconstituted Bax^−/−Bak^−/− mouse embryo fibroblasts (DKO MEFs) with either wild type or BAXK21E and monitored apoptosis induction in response to BIM SAHB. […] This decrease in BAXK21E-mediated apoptosis correlates with impaired activation of […] by BIM SAHB in both oligomerization and cytochrome c release assays (FIG. 15a, 15b).
To probe the broader physiologic impact of the novel BAX activation site, we examined the apoptotic response of DKO MEFs reconstituted with BAX and BAXK21E to staurosporine (STS), a general stimulus known to operate through endogenous BH3-only proteins, including BIM. K21E mutagenesis impaired STS-induced apoptosis, as monitored by annexin V binding over time (FIG. 15d). The reduced activity of BAXK21E was also reflected by impaired cytochrome c release, as detected by subcellular fractionation Western analysis and indirect immunofluorescence. The blunted response of BAXK21E-reconstituted DKO MEFs to STS is uniformly consistent with impaired activation of BAXK21E by BIM SAHB in oligomerization (FIG. 15a), cytochrome c release (FIG. 15b), and cell-based apoptosis assays (FIG. 15c). […]

[3] = molecular target: T1, BCL-2-related ovarian killer (BOK) (Homo sapiens, UniProt Q9UMX3); assay: binding of SAHB ligands to BOK
T1 sequence (Q9UMX3 1-212): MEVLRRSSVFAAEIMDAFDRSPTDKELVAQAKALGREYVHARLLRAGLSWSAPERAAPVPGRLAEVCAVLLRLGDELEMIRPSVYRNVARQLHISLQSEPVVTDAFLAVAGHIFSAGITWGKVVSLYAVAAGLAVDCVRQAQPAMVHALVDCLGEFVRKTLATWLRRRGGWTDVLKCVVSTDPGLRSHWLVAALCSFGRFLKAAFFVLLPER

[4] = tested on: MCL-1 overexpressing or otherwise chemoresistant cancer cells; assay: reactivating apoptosis of MCL-1 overexpressing or chemoresistant cancer cells; assay type: cell-based
Excerpt: Many cancer cells and their relapsed/chemoresistant variants achieve cellular immortality by massively overexpressing anti-apoptotic members of the BCL-2 family. Using BH3 mimetics and small molecules, anti-apoptotic inhibition is one mode of overcoming apoptotic blockade. However, when BH3 mimetics or small molecules have a specificity profile that cannot target a specific anti-apoptotic blockade, such as MCL-1 overexpression (Van Delft et al, Cancer Cell. 2006 Nov.; 10(5):389-99; Konopleva et al, Cancer Cell. 2006 Nov.; 10(5):375-88; Deng et al Cancer Cell. 2007 Aug.; 12(2):171-85), direct BAX modulation can circumvent, or synergize with, such apoptotic blockade for therapeutic benefit. […] Therefore, cancers or other diseased cells that either overexpress anti-apoptotic proteins such as MCL-1 and A1, or cancers or diseased cells that specifically down-regulate activator BH3-only proteins, like BIM, such as in Mantle Cell lymphoma (Tagawa et al Oncogene. 2005 Feb. 17; 24(8):1348-58; Mestre-Escorihuela, Blood. 2007 Jan. 1; 109(1):271-80) and cf. with mouse model of BIM-deletion, are ideally suited for BIM SAHB, or derivatives and mimetics thereof, to reactivate apoptosis through direct engagement of the novel BAX activation site and thereby induce apoptosis for therapeutic purposes and irrespective of the aforementioned apoptotic blockades.

monomeric BAX = monomeric BAX (Homo sapiens, UniProt Q07812); assay: BAX oligomerization assay (size exclusion chromatography); assay type: biochemical; settings: wild-type BAX, room temperature
Excerpt: In contrast to the stable inhibitory interactions of BIM BH3 with anti-apoptotic proteins, the BAX-activating interaction triggers a dynamic continuum of events that includes BAX conformational change and oligomerization. […] In monomeric BAX, the center of the loop weakly associates with residues Ile133 and Met 137 of the α6 helix (Suzuki & Tjandra, Cell 103 (4), 645-654 (2000)). Changes observed in the loop residues can readily be explained by the shift of the loop conformation into an open form upon BIM SAHB binding. Because loop displacement upon ligand engagement may initiate a conformational change of BAX, we investigated whether BIM SAHB binding could directly activate BAX in solution. We monitored both the conversion of BAX from monomer to oligomer by size-exclusion chromatography (SEC) and the exposure of its buried N-terminal residues using the 6A7 antibody, which selectively detects the conformational change associated with BAX activation (Hsu & Youle, The Journal of biological chemistry 272 (21), 13829-13834 (1997)). […] Thus, the transient stability of the BIM SAHB-BAX complex we observe by NMR correlates with the interaction-triggered BAX conformational change and oligomerization that we detect biochemically.
Oligomerization assay: BIM SAHB was added to a 200 μL solution (20 mM Hepes/KOH pH 7.2-7.4, 150 mM KCl) containing monomeric BAX (38 μM) at a ratio of 0.5:1, 1:1, 2:1 and 4:1 BIM SAHB:BAX. The mixtures and a sample of BAX monomer alone were incubated at 22° for 15 minutes and then subjected to analysis by size exclusion chromatography (SEC) using an SD75 column. […] Protein standards (GE Healthcare) were used to calibrate the molecular weights of gel filtration peaks. For time-dependent analysis, BIM SAHB was added to monomeric BAX at a ratio of 1:1, and the mixtures were analyzed by SEC after incubation for 30, 60, and 90 minutes at 22° C. As a baseline for comparison, Bax monomer alone was analyzed at time 0 and the above time points.

[5] = tested on: Bax−/−Bak−/− mouse embryo fibroblasts reconstituted with wild type BAX; assay: apoptosis of BAX-reconstituted DKO MEFs (annexin-V binding); assay type: cell-based
Excerpt: as §1

[6] = tested on: BAX-mediated cytochrome c release, BAX/BAK doubly-deficient mouse liver mitochondria; assay: mitochondrial cytochrome c release assay; assay type: biochemical; settings: Alb-cre pos Bax flox/− Bak−/− mouse liver mitochondria plus BAX
Excerpt: (§2) To confirm that the SEC-based detection of BIM SAHB-induced BAX oligomerization reflects functional activation of BAX for its release activity, we performed correlative liposomal and mitochondrial assays. […] Thus, in four distinct in vitro assays that measure ligand-induced BAX activation, BIM SAHB directly and dose-responsively triggered BAX.
Mitochondrial Release Assay: In order to test activation/inhibition of a BCL-2 family polypeptide interactions on mitochondrial apoptosis induction, a cytochrome c release assay is used that employs mouse liver mitochondria from Bak^−/− mice or Alb-cre^posBax^flox/−Bak^−/− mice, added recombinant BCL-2 family polypeptide, e.g., BAX, BAK, or BOK (50 nM) with or without increasing doses of SAHBs (50-500 nM), and an ELISA-based read-out of cytochrome c. Negative controls include recombinant protein alone, compounds alone, vehicle treatment, point mutant SAHBs, and blockade using anti-apoptotic proteins, such as BCL-XL ΔC.

BAX = BAX (Homo sapiens, UniProt Q07812); assay: liposomal release assay (FITC-dextran); assay type: biochemical; settings: combination with BAX
Excerpt: as §2
Liposomal Release Assay: Another assay that can be used to determine modulation of the BCL-2 family polypeptide is a liposomal release assay that simulates the mitochondria but only includes the essential components for BAX/BAK/BOK-induced release. […] Lipid concentration is determined by measuring vesicular phosphate content (Böttcher, C. J. F. et al. (1961) Anal Chim Acta 24, 203-204). The fluorescence dequenching assay is adapted from previous reports (Kuwana, T. et al. (2002) Cell 111(3), 331-342) (Terrones, O., et al. (2004) J Biol Chem 279(29), 30081-30091). The release of FITC-labeled dextran-10 kD from LUVs is monitored using a FluoroMax-2 spectrofluorometer (SPEX), in a thermostated 1 cm path length quartz cuvette with constant stirring at 37° C. […]

Chain of monomeric BAX (Q07812 whole entry): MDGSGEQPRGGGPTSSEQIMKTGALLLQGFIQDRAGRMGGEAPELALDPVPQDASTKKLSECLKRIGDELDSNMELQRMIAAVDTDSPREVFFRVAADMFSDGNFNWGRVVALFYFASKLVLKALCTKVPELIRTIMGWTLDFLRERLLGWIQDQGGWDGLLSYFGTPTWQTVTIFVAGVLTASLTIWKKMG
Chain of BAX (Q07812 whole entry): as above

Row | BAX oligomerization (monomer to oligomer, SEC) (monomeric BAX) | Molecule | apoptosis induction, annexin-V binding [2] | BAX-mediated cytochrome c release [6] | further results
1 |  | CN(C)CC[C@H](CSc1ccccc1)Nc1ccc(S(=O)(=O)NC(=O)c2ccc(N3CCN(Cc4ccccc4-c4ccc(Cl)cc4)CC3)cc2)cc1[N+](=O)[O-] [ABT-737, reference compound] |  |  | cell killing / sensitivity [1]: resistant
2 |  | CN[C@@H]1C[C@H]2O[C@@](C)([C@@H]1OC)n1c3ccccc3c3c4c(c5c6ccccc6n2c5c31)C(=O)NC4 [staurosporine, reference compound] | impaired |  | 
3 |  | BID SAHB: hydrocarbon-stapled BID BH3 polypeptide (FIG. 9, SEQ ID NO:4) (ESQEDIIRNIARHLAQVGDEMDRSI; staple (positions not given here); also: hydrocarbon staple, positions not given here; listed as Homo sapiens) |  |  | binding to BOK [3]: bound; potency in reactivating apoptosis relative to ABT-737 or BAD SAHB [4]: more potent
4 | abrogated | BIM SAHB R153D: BIM SAHB with reverse-polarity point mutation R153D at the BAX interaction surface (FIG. 13a) (EIWIAQELDRIGDEFNAYYARR; staple (positions not given here); also: hydrocarbon staple, positions not given here) | abolished | abrogated | apoptosis induction, annexin-V binding [5]: abolished; liposomal release of entrapped FITC-dextran (BAX): abrogation of activity
5 | abrogated | D157R: BIM SAHB with reverse-polarity point mutation D157R (FIG. 13a) (EIWIAQELRRIGREFNAYYARR; staple (positions not given here); also: hydrocarbon staple, positions not given here) |  | abrogated | 
6 | abrogated | I155E: BIM SAHB with hydrophobic to charged point mutation I155E (FIG. 13a) (EIWIAQELRREGDEFNAYYARR; staple (positions not given here); also: hydrocarbon staple, positions not given here) |  | abrogated | 
